The values below come from patent US20240317722A1, “HETEROARYL-3-PIPERIDINEDIONE COMPOUND AND USE THEREOF” (Medshine Discovery Inc., priority 2021, published 2024).

In one data set the test system is MDA-MB-231. Kind of data set: Anti-proliferative effect in MDA-MB-231 (CellTiter-Glo). Type of data set: cell-based, human. The conditions noted are these: MDA-MB-231, 3 days; for IC50: Homo sapiens, 72 h. As for the experimental part: (§1) This assay studied the inhibitory effect of the compounds on cell proliferation by detecting the effect of the test compounds on the in vitro activity of tumor cells MV4-11 and MDA-MB-231.
(§2) The tumor cell lines were cultured in an incubator at 37° C., 5% CO2 or 0% CO2according to the above culture conditions. The cells were periodically passaged, and cells in logarithmic growth phase were taken for plating. • 2. Cell plating • (1). Cells were stained with trypan blue and viable cells were counted. • (2).
(§3) • (3). 90 μL of cell suspension was added to each well of the culture plate, and culture medium without cells was added to the blank control well. • (4). The plate was incubated overnight in an incubator at 37° C., 5% CO2 or 0% CO2, and 100% relative humidity. • 3. Preparation of a compound storage plate
(§4) Preparation of a 400× compound storage plate: The compounds were diluted with DMSO in a gradient from the highest concentration to the lowest concentration. The plates were prepared freshly at each time for use. • 4. Preparation of 10× compound working solution and treatment of cells with compounds • (1). Preparation of 10× compound working solution: compound or DMSO was added, and the well content was mixed to uniform by aspiration and expelling with pipette. 78 μL of cell culture medium was added to a 96-well plate with a V-shaped bottom. 2 μL of the compound from the 400× compound storage plate was added to the cell culture medium in the 96-well plate. 2 μL of DMSO was added to the vehicle control and the blank control. After adding compound or DMSO, the well content was mixed to uniform by aspiration and expelling with pipette. • (2). Dosing: 10 μL of 10× compound working solution was added to the cell culture plate. 10 μL of DMSO-cell culture mix solution was added to the vehicle control and blank control. • (3). The 96-well cell plate was placed back into the incubator and cultured for 3 days. • 5. CellTiter-Glo luminescence cell viability detection
The following steps were performed according to the instruction of Promega CellTiter-Glo luminescence cell viability detection kit (Promega-G7573). • (1). The CellTiter-Glo buffer was thawed and allowed to stand to reach room temperature; • (2). CellTiter-Glo substrate was allowed to stand to reach room temperature; • (3). 10 mL of CellTiter-Glo buffer was added to CellTiter-Glo substrate in a bottle to dissolve the substrate to formulate CellTiter-Glo working solution; • (4). The working solution was vortexed slowly for fully dissolution; • (5). The cell culture plates were taken out and allowed to stand for 30 minutes to equilibrate to room temperature; • (6). 50 μL (equal to half the volume of cell culture solution in each well) of Cell Titer-Glo working solution was added into each well. The cell plate was wrapped with aluminum foil to protect the cell plate from light; • (7). The culture plates were shaken on an orbital shaker for 2 minutes to induce cell lysis; • (8). The culture plates were left at room temperature for 10 minutes to stabilize the luminescence signal; • (9). The luminous signal was detected on the 2104 En Vision plate reader. • 6. Data analysis
The following formula was used to calculate the inhibition rate (IR) of the test compounds: IR (%)=(RLU of the vehicle control−RLU of the compound)/(RLU of the vehicle control−RLU of the blank control)*100%. The inhibition rates of the compounds at different concentrations were calculated in Excel, and then GraphPad Prism software was used to graph the inhibition curves and calculate the relevant parameters, including the minimum inhibition rate, maximum inhibition rate and IC50.

Data set [1] is described as follows: Pharmacokinetics of compounds in mice. In kind it is in vivo, C57BL/6N mice. As to conditions: for bioavailability / clearance / Vd / half-life: male, C57BL/6N, mouse, plasma; for bioavailability: read-out: Bioavailability F; for Vd: read-out: Apparent volume of distribution; for half-life: read-out: Elimination half-life (converted). An excerpt:
In this study, C57BL/6N male mice were selected as the test animals, and the LC/MS/MS method was used to quantitatively determine the drug concentration in the plasma of mice intravenously or orally administered the test compounds, so as to evaluate the pharmacokinetic profile of the test compounds in mice.
C57BL/6N mice (male, 20-30 g, 7-10 weeks old, Beijing Vital River).
A clear solution or suspension of the test compound was intravenously injected into C57BL/6N mice (fasted overnight) via tail or given to C57BL/6N mice (fasted overnight) by gavage. For intravenous injection administration, blood was collected from the cheek at 0 h (before administration) and 0.083, 0.25, 0.5, 1, 2, 4, 6, 8, and 24 h after administration. Each sample was collected about 0.05 mL. Heparin sodium was added to anti-coagulate. Plasma samples were collected and placed on wet ice, and centrifuged within 1 hour to separate the plasma (centrifugation conditions: 6000 g, 3 minutes, 2-8° C.). Blood samples were stored in a −80° C. refrigerator before analysis; For oral gavage administration, blood was collected from the cheek at 0 h (before administration) and 0.083, 0.25, 0.5, 1, 2, 4, 6, 8, 24 h after administration. Each sample was collected about 0.05 mL. Heparin sodium was added to anti-coagulate. Plasma samples were collected and placed on wet ice, and centrifuged within 1 hour to separate the plasma (centrifugation conditions: 6000 g, 3 minutes, 2-8° C.). Blood samples were stored in a −80° C. refrigerator before analysis. Through blood drug concentration data at different time points, Phoenix WinNonlin8.2.0 was used to calculate pharmacokinetic parameters, providing parameters such as AUC0-t, AUC0-∞, MRT0-∞, Cmax, Tmax, and T1/2, etc. and their mean and standard deviation.

Data set [2] deals with T1, GSPT1 (Homo sapiens, UniProt P15170+Q96SW2). Kind of data set: Target protein degradation in HEK293T-LgBiT_GSPT1-nHiBiT cells (HiBiT luminescence). Type of data set: cell-based. More on the design: expressed in transfected cells. As to conditions: 16 to 18 hours; for Dmax: read-out: Max. DR (maximum degradation rate). As for the experimental part: This assay was performed to detect the degradation effect of the test compound on the target protein GSPT1 in HEK293T-LgBiT cells.
• 1. Preparation of compounds • (1). Dissolving the powder of the test compound with DMSO to 10 mM as the storage concentration, and using a pipette to manually draw 9 μL of 10 mM or 3 mM test compound to columns 1 and 13 of a LDV plate; • (2). Using multidrop Combi to add 6 μL of DMSO to columns 2-12 and 14-24; • (3). Using Bravo to dilute the test compound 3 times (3 μL+6 μL) from columns 1 to 11 and 13 to 23; • (4). According to the layout of the plate, using Echo to transfer 25 nL of compound solution (columns 1-24 of the LDV plate) to the assay plate; • (5). Using Echo to transfer 25 nL of 1 mM positive control solution to the assay plate as a 100% degradation control (i.e. LC, HPE), and to transfer 25 nL of DMSO to the assay plate as a 0% control (i.e. HC, ZPE). • 2. Cell plating • (1). Discarding the cell culture medium, and washing the cells once with DPBS; then the cells were trypsinized, counted, and used to prepare a cell suspension of 4×10^5 cells/mL; • (2). Using MultiDrop Combi to add 25 μL/well of cell suspension at medium speed to the assay plate containing the test compound; • (3). Putting the assay plate containing cells back into the incubator and culturing it at 37° C. and 5% CO2 for 16 to 18 hours.
• (1). Using MultiDrop Combi to add 25 μL/well of detection reagent (NanoGlo lysis solution+substrate+LgBit protein) to the assay plate at high speed, and shaking for 10 minutes; • (2). Centrifuging at 2000 rpm×1 min to remove bubbles; • (3). Reading the plate using Envision, US Luminescence detection method.
The following formula was used to calculate the degradation rate (DR) of the test compound: DR (%)=(RLU of vehicle control−RLU of compound)/(RLU of vehicle control−RLU of positive control)*100%, wherein the vehicle control was a blank control. The degradation rates of compounds at different concentrations were calculated in Excel, and then XLFit software was used to obtain inhibition curves and to calculate relevant parameters, including the minimum degradation rate, maximum degradation rate and DC50.

Another data set has as its system MV4-11. Briefly: Anti-proliferative effect in MV4-11 (CellTiter-Glo). Type of data set: cell-based. The conditions noted are these: MV4-11, 3 days; for IC50: Homo sapiens, 72 h. As for the experimental part:
as §1, §2, §3, §4
The following steps were performed according to the instruction of Promega CellTiter-Glo luminescence cell viability detection kit (Promega-G7573). • (1). The CellTiter-Glo buffer was thawed and allowed to stand to reach room temperature; • (2). CellTiter-Glo substrate was allowed to stand to reach room temperature; • (3). 10 mL of CellTiter-Glo buffer was added to CellTiter-Glo substrate in a bottle to dissolve the substrate to formulate CellTiter-Glo working solution; • (4). The working solution was vortexed slowly for fully dissolution; • (5). […] The culture plates were left at room temperature for 10 minutes to stabilize the luminescence signal; • (9). The luminous signal was detected on the 2104 En Vision plate reader. • 6. […]

Data set [3] deals with T1, GSPT1. Kind of data set: Effect of degrading GSPT1 protein (Western blot) in BxPC-3 cells. Type of data set: cell-based. Also noted: endogenous in cells; host or cells: BxPC-3. As to conditions: 10 μM, 1 μM and 0.1 μM, 24 hours, Western blot (FIG. 1). As for the experimental part:
BxPC-3 cells were treated with 10 μM, 1 μM and 0.1 μM of the test compound respectively for 24 hours. The cells were collected and lysed, denatured at 100° C. for 20 minutes, and then subjected to Western blot analysis. β-actin was used as the internal reference protein to detect the protein level of GSPT1. The main steps included: 1) Electrophoresis: Biorad precast gel was used to separate proteins using SDS-PAGE electrophoresis; 2) Transfer to membrane: Biorad rapid transfer to membrane system was used to transfer the proteins on the gel to PVDF membrane; 3) Blocking: the PVDF membrane with Western blotting was placed into an antibody incubation box, and blocking solution was added to completely cover the PVDF membrane for incubation at room temperature for 1 hour; 4) Incubation of the primary antibody: the above PVDF membrane was covered with GSPT1 antibody diluent, and incubated on a shaker at 4° C. overnight, 5) Incubation of the secondary antibody: the membrane was washed three times with Wash buffer, and secondary antibody diluent (Anti-rabbit IgG, HRP-linked) was added for incubation on a shaker at room temperature for 1 hour; 5) Exposure: the membrane was washed three times with Wash buffer, and the band on the membrane was detected using chemiluminescence method (Clarity Western ECL Substrate).

Where [4] appears, read: administration by gavage, 10 mg/kg.

Structures are written as SMILES. Where two headings read alike, the source gives them in different places.

T1 sequence (P15170 whole entry): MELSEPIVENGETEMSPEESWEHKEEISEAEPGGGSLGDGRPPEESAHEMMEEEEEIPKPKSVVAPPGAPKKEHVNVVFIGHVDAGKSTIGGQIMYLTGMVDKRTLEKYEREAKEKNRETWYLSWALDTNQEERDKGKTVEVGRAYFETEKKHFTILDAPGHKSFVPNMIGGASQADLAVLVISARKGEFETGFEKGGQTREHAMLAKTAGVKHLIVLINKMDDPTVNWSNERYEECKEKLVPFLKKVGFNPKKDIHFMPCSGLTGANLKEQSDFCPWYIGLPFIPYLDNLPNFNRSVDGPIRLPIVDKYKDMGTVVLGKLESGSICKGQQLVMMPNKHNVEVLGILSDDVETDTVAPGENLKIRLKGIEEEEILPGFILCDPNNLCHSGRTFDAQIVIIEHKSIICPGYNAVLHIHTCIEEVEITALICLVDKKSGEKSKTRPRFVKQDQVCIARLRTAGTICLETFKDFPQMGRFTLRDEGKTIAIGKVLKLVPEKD
T1 sequence (Q96SW2 whole entry): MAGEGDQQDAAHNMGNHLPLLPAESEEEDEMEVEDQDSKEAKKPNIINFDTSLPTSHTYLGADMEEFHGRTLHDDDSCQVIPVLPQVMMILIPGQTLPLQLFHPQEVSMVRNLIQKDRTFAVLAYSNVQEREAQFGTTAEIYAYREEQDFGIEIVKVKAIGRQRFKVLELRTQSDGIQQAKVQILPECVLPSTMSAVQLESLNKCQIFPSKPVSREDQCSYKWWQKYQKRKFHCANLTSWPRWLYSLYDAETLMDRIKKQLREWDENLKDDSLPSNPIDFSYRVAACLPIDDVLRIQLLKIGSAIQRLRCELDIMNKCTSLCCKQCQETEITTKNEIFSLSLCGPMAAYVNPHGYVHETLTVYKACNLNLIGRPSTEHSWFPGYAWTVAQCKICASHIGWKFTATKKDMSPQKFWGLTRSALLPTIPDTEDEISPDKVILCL
T1 sequence (Q16531 whole entry partner): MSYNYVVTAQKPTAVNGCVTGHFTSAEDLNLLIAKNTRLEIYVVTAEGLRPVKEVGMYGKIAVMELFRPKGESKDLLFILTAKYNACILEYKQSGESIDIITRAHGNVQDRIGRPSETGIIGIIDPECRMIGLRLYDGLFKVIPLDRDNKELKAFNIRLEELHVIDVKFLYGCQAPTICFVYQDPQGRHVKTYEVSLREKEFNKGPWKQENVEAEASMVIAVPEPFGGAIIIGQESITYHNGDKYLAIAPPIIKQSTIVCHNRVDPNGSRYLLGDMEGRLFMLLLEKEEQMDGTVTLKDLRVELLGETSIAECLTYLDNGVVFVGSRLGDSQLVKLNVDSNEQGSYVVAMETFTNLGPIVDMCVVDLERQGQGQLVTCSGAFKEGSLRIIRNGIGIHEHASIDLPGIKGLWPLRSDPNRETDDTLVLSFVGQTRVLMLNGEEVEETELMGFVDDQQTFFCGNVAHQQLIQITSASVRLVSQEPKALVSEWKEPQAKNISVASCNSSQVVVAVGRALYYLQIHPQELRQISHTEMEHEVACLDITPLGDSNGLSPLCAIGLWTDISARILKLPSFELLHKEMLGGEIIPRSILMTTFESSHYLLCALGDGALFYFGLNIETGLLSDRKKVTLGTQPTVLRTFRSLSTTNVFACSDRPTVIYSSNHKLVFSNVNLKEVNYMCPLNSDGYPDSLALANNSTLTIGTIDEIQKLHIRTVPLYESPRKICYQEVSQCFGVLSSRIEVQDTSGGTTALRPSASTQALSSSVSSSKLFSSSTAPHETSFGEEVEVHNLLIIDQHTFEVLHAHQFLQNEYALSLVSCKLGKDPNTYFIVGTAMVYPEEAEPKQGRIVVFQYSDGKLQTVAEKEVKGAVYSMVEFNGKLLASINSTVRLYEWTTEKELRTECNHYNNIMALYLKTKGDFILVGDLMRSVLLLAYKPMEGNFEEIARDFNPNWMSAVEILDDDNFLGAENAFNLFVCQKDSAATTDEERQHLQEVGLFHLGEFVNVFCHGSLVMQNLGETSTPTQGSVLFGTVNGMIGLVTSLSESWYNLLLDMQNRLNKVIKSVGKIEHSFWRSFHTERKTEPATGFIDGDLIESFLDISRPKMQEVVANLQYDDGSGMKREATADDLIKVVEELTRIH

With `Cc1c(Cl)cc(NC(=O)NCc2ccc3c(C4CCC(=O)NC4=O)coc3c2)cc1OCCN1CCOCC1` (stereo not shown) [WX006], in the data set on MDA-MB-231, the IC50 came out at 4.7 nM and the “Max. IR (maximum inhibition rate)” value was determined as 80.3%. For the same compound, in data set [1] (setting [4]), the “Area under the plasma concentration-time curve (0-inf)” value (“Area” below) turned out to be 2.71 µM·h, the Peak concentration came to 1.76 µM and the Time to peak is listed as 0.50 h. Moreover, in data set [1] (intravenous injection, 1 mg/kg), the “Area” value came to 1.90 µM·h, the clearance is 15.8 mL/min/kg, the Vd was 2.3 L/kg and the half-life is 217 min. Moreover, the bioavailability in data set [1] (PO 10 mg/kg vs IV 1 mg/kg) came to 14.2%. At GSPT1 [2], the DC50 worked out at 1.94 nM and the Dmax came to 99.9%.
With `Cc1c(Cl)cc(NC(=O)NCc2ccc3c(C4CCC(=O)NC4=O)noc3c2)cc1OCCN1CCOCC1` (stereo not shown) [WX012], in data set [1] (setting [4]), the “Area” value turned out to be 1.99 µM·h, the Peak concentration was 0.69 µM and the Time to peak turned out to be 1.08 h. Also, in data set [1] (intravenous injection, 2 mg/kg), the “Area” value was found to be 6.45 µM·h, the clearance was found to be 9.5 mL/min/kg, the Vd was 0.41 L/kg and the half-life was 111 min. In addition, the bioavailability in data set [1] (PO 10 mg/kg vs IV 2 mg/kg) amounted to 6.18%. Further, at GSPT1 [2], the DC50 is 1.18 nM and the Dmax came out at 99.8%.
`O=C(COc1cccc(-c2csc(N3CCOCC3)n2)c1)NCCCCCCC(=O)Nc1ccc2c(C3CCC(=O)NC3=O)coc2c1` (stereo not shown) [WX003]: in the data set on MDA-MB-231, the IC50 came to 52.4 nM and the “Max. IR (maximum inhibition rate)” value amounted to 65.29%. In the data set with MV4-11, the IC50 amounted to 6 nM and the “Max. IR (maximum inhibition rate)” value is recorded as 100.15%.
For the compound `Cc1ccc(NC(=O)NCc2ccc3occ(C4CCC(=O)NC4=O)c3c2)cc1Cl` (stereo not shown) [WX001], the IC50 in the data set on MDA-MB-231 turned out to be 57.2 nM; in the data set with MV4-11 it was 30.5 nM. The “Max. IR (maximum inhibition rate)” value in the data set with MDA-MB-231 is given as 69.41%; with MV4-11 it was 99.95%. In addition, the “effect of promoting the degradation of GSPT1 protein” value at GSPT1 [3] is “significant effect of promoting the degradation of GSPT1 protein”.
